Reference: paper PMC10022577 (Chem, 2023)

Biological target: T1, AlbS (albireticulene synthase) (Streptomyces albireticuli, UniProt A0A2A2D8W5)
T1 sequence (A0A2A2D8W5 1-369): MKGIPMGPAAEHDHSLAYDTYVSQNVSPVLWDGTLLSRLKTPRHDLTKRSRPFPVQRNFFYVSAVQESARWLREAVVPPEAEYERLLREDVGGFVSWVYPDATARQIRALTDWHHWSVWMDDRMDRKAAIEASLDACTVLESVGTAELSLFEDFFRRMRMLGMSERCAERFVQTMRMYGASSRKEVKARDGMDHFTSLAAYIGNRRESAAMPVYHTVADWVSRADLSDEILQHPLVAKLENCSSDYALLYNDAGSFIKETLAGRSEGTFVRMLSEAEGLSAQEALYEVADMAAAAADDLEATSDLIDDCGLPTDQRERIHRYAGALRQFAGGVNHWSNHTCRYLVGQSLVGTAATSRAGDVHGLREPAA
Test: GC-MS product analysis
Type: biochemical
Details: products: five sesquiterpenes (3-7)

For `CC(C)=CCC/C(C)=C/CC/C(C)=C/COP(=O)(O)OP(=O)(O)O` [FPP], the GC-MS product analysis was “GC-MS analysis revealed that FPP was converted into five sesquiterpenes”.
